# Test results taken from patent publication US8986662B2, “Use of silane and siloxane bis(biphenyl) triazine derivatives as UV absorbers” (BASF SE, priority 2010, dated 2015).
# How the values were obtained:
# Format in all cases: physicochemical
# [1] = UV spectrum in tetrahydrofurane (synthesis examples); conditions: for ε: at λmax
# [2] = Measurement of photostability: irradiation of highly diluted ethanol solution, analysis by UV-spectroscopy; conditions: first order kinetic model; diluted solution in ethanol; half-life under COLIPA standard sun irradiation
# Description: The method used for assessment of photostability is based on the irradiation of a highly diluted solution of the UV-filter. The analysis after certain doses of irradiation was performed by UV-spectroscopy. The concentration of the UV-absorber in ethanol is adjusted to values between […], such that the absorbance of the solution in cuvette of 1 cm optical pathlength is equal or smaller than 0.2. The mutual protection of filter molecules can be excluded under such conditions.
# Prior to irradiation of a sample the UVB-intensity at the sample position is measured with a UV-radiometer (RM-12, Dr. Grobel Electronic GmbH). […] Therefore the relationship of the reading of the RM-12 radiometer and the corresponding spectral output of the lamp is known, and one is able to determine the wavelength-resolved intensities by measuring the UVB-intensity. […]
# For sample irradiation the highest possible intensity was used (4.5 mW/cm^2 UVB-intensity measured with the Macam 103 radiometer). […] After certain intervals of irradiation, the samples were analysed in a UV-spectrometer (Perkin Elmer, Lambda 16).
# From the absorbance values at each dose of irradiation the concentration may be calculated using Lambert-Beer's law. […]
# [3] = Measurement of solubility in Capric/Caprylic Triglyceride; conditions: solvent Capric/Caprylic Triglyceride
# [4] = UV shielding properties: UV spectra in ethanol
# Text: The UV shielding properties of the bisbiphenyl triazine derivatives were investigated by measuring their UV spectra in ethanol. In the following table the investigated absorption maxima (λmax) together with the corresponding A^1%1cm values are listed.
λmax [1],ε [1],Half time [2],Solubility in Capric/Caprylic Triglyceride [3],Absorption maximum λmax [4],Compound
319 nm,76300 M⁻¹ cm⁻¹,412.1 h,22.8 w-%,319,CC[Si](CC)(CC)CCCOc1ccc(-c2nc(-c3ccc(-c4ccccc4)cc3)nc(-c3ccc(-c4ccccc4)cc3)n2)c(O)c1 [S-2]
320 nm,75800 M⁻¹ cm⁻¹,342.2 h,–,320,CCO[Si](CCCOc1ccc(-c2nc(-c3ccc(-c4ccccc4)cc3)nc(-c3ccc(-c4ccccc4)cc3)n2)c(O)c1)(OCC)OCC [S-8]
